Measured values: the NIST ThermoML archive (doi:10.1016/j.jct.2019.07.007)

Experiment: wn = mass fraction of the nth substance listed
Settings: 101 kPa, Liquid, Concentric cylinders viscometry

CC(O)CN(C)C (centres undefined) [1-(dimethylamino)-2-propanol] + O
viscosity [mPa·s]
Settings	303.2 K	313.2 K	323.2 K
w1 = 0.3	3.1	2.18	1.66
w1 = 0.4	4.56	3.08	2.19
w1 = 0.5	6.01	3.96	2.79
